Experiments:
[1] = compared with nitroxoline; in words; cited from earlier work
[2] = Saturated solubility of the main drug in different media; type: physicochemical; details: for solubility at 72 h: thermodynamic from solid, 37° C.
Method: The solubility of the main drug (5-nitro-8-hydroxyquinoline L-lysinate monohydrate) is greatly affected by pH. In order to select a suitable dissolution medium to achieve the sink condition, the saturated solubility of the main drug in water, pH 1.0 hydrochloric acid solution, pH 4.0 buffer (solution A: water was added to 21 g of citric acid or 19.2 g of anhydrous citric acid to obtain a 1000 mL solution, which was then stored in a refrigerator; solution B: water was added to 71.63 g of disodium hydrogen phosphate to obtain a 1000 mL solution; 61.45 mL of solution A and 38.55 mL of solution B were mixed and shaked well to obtain the pH 4.0 buffer) and pH 6.8 PBS buffer (118 mL of 0.2 mol/L sodium hydroxide solution was added to 250 mL of 0.2 mol/L phosphoric acid solution, the resulting solution was diluted with water to 1000 mL and shaked well to obtain the pH 6.8 PBS buffer) were investigated. The specific method: excessive main drug (about 1.5 g) was added to 10 mL of the above four media, respectively; the resulting mixture was placed in a SHA-B multifunctional water bath constant temperature shaker (manufacturer: Zenith Lab (Jiangsu) Co., Ltd.) at water bath temperature of 37° C. and shaked at a speed of 280 rpm for 72 hours; the solution was filtered through a 0.45 μm nitrocellulose membrane (manufacturer: Tianjin Jinteng Experimental Equipment Co., Ltd.); and the filtrate was measured with a UV-2700 ultraviolet-visible spectrophotometer (manufacturer: Shimadzu, Japan), detection wavelength: 369 nm.

Row | SMILES | water solubility [1] | Whether the sink condition was achieved ([2]; Water) | solubility at 72 h ([2]; aqueous buffer, pH 6.8 PBS buffer) | Whether the sink condition was achieved ([2]; pH 1.0 hydrochloric acid solution) | Whether the sink condition was achieved ([2]; pH 4.0 buffer) | solubility at 72 h ([2]; pH 4.0 buffer (citric acid / disodium hydrogen phosphate), aqueous buffer, pH 4.0 buffer) | Whether the sink condition was achieved ([2]; pH 6.8 PBS buffer) | solubility at 72 h ([2]; simulated gastric fluid, pH 1.0 hydrochloric acid solution) | solubility at 72 h ([2]; Water)
1 | O=[N+]([O-])c1ccc(O)c2ncccc12 [nitroxoline lysinate] | better than that of nitroxoline |  |  |  |  |  |  |  | 
2 | O=[N+]([O-])c1ccc(O)c2ncccc12 [main drug, 5-nitro-8-hydroxyquinoline L-lysinate monohydrate] |  | Yes | 15700 µg/mL | Yes | No | 430 µg/mL | Yes | 1540 µg/mL | 100000 µg/mL
